The text below walks through data of patent US20180317415A1, “NANOBIONIC LIGHT EMITTING PLANTS” (MASSACHUSETTS INSTITUTE OF TECHNOLOGY, priority 2015, published 2018).

The IC50 is the concentration that gives 50% inhibition.

For one experiment, the target named is firefly luciferase (Photinus pyralis, UniProt P08659). Particulars: strong inhibitor of the luciferase; read-out: IC50 as inhibitor of light production; cited from earlier work.
Experiment [1] concerns firefly luciferase-luciferin reaction. The experiment is described as follows: light production and light duration in vitro (test tube mixture, photos analysed by Image J). The following applies: for light duration extended by: PLGA-LH2 1 mM, CS-CoA 625 μM. The format is biochemical.
The next experiment concerns living watercress plant. The experiment in a line: light emission in living watercress plant after LIN/PBIN infiltration of nanoparticles. It is filed as in vivo, watercress (Nasturtium officinale). Particulars: 1-2 hours compared to 30 minutes incubation of SNP-Luc (LIN) before free luciferin 0.1 mM.

Chain of firefly luciferase (P08659 whole entry): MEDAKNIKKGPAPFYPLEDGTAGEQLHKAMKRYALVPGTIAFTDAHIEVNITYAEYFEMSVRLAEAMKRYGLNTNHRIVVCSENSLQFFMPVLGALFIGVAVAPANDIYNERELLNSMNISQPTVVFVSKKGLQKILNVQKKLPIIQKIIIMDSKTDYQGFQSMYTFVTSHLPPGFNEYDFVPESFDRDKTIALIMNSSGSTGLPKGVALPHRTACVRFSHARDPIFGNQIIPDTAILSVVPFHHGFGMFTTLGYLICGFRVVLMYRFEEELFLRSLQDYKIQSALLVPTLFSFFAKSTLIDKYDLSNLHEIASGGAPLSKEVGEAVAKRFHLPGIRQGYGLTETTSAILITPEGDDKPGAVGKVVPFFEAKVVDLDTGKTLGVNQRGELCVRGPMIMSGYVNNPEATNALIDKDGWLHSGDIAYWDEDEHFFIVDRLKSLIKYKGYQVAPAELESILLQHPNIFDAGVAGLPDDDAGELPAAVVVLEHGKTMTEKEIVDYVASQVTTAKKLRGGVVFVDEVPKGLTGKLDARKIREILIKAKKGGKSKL
Procedure for living watercress plant: Leaf discs of spinach plants 3 week-olds were infiltrated with 30 mM HEPES buffer (pH 7.4) via PBIN at speed of 0.4 bar/s and cell membranes were stained with FM 464 fluorescent dye (red).
SNP-Luc was infiltrated by LIN 1 h in advance, and PLGA-LH alone or PLGA-LH and CS-CoA were infused into a watercress plant by PBIN. […] To extend the illumination time, the third nanoparticle class, CS-CoA, was co-infiltrated with PLGA-LH by PBIN. […] In FIG. 3E, a and b represent concentration of SNP-Luc (μM) and concentration of PLGA-LH2 (mM), respectively. […] Maximum number of photons/sec was obtained from the first photo (analyzed by Image J). […]
Infiltration of nanoparticles in living plants. […] The pressure was monitored by digital hydronic manometer (Dwyer instruments, IN, USA). […]
Estimation of photon numbers from light emitting plants. The power of LED light was first measured at 12.70 cm away using a photo-detector (λ=530 nm, detector surface area=1 cm^2) (PM100, ThorLabs, NJ, USA). The number of photons incident on the photo-detector was determined using the measured power (10 nW) divided by the energy of a single photon at 530 nm, given by the equation below
An image of the LED light was taken at 68.58 cm of distance with 1/1000 s exposure to avoid saturation of pixels and converted into quantitative values using ImageJ (Mean value=0.016).

`Nc1ncnc2c1ncn2C1OC(COP(=O)(O)OC(=O)c2csc(-c3nc4ccc(O)cc4s3)n2)C(O)C1O` (centres unmarked) [dehydroluciferyl-adenylate]: on firefly luciferase, the IC50 was 5 nM.

For the compound “SNP-Luc: firefly luciferase immobilized on 7 nm GPTS-PEG amine silica nanoparticles”, the “light duration extended by” value in experiment [1] (200 nM SNP-Luc) was 22 h; in experiment [1] (4 μM SNP-Luc) it was 6 h. In addition, the “light duration compared with free luciferase” value in experiment [1] (1 mL mixture, 12 nM luciferase, 100 μM luciferin, 100 μM ATP) is listed as “longer light duration than that of free luciferase”. Moreover, the “initial number of photons, times higher” value in the experiment with living watercress plant lay in the range of 4 to 7 times.
